Experimental data published in article PMC9763021, “Comprehensive Assessment of Biomolecular Interactions of Morpholine-Based Mixed Ligand Cu(II) and Zn(II) Complexes of 2,2′-Bipyridine as Potential Anticancer and SARS-CoV-2 Agents: A Synergistic Experimental and Structure-Based Virtual Screening” (Bioinorganic Chemistry and Applications, 2022).
pIC50: −log10 of the molar value.

How the values were obtained:
[1] = Hydroxyl radical scavenging assay; format: biochemical; conditions: for % Inhibition hydroxyl radical: 230 nm
Description: All samples were evaluated for their scavenging ability with the help of UV-visible spectrophotometer at different concentrations of 40, 80, 120, 160, 200, and 240 μM [6, 28]. While performing the antioxidant properties for the DPPH, hydroxyl, superoxide, and nitric oxide radical scavenging, the absorbance at 517, 230, 590, and 546 nm, respectively, was closely observed. In addition, the observed IC50 values of all samples were compared with ascorbic acid.
Hydrogen peroxide receives electrons from antioxidant molecules and then neutralizes them into a water molecule. ^●OH inhibition capability was determined from the % of inhibition for all test substances at 230 nm.

CT-DNA = test: DNA binding by cyclic voltammetry; design: species or system calf thymus; conditions: for K[red]/K[oxi], (calcd): Nernst equation; for K[red]/K[oxi], found (I): from method I; for S (bp), binding site size: method II; for Kb method I, (oxi): oxidation; for Kb method I, red: reduction; for Es° = (Eb° − Ef°): shift of formal potential on DNA binding
Description: The CV titration for free substances was conducted at 10 μM at 25°C in the presence of Tris-HCl buffer solution (pH: 7.4). While CT-DNA increases (0–10 μM) in each sample solution, a shift in potential, including variations in the peak currents of anodic and cathodic sides, has been monitored.
The CV technique is one of the most important tools for investigating the DNA-complex adduct's binding mechanism. The CV properties of all test samples in the presence and absence of DNA were executed at a scan rate (v) 0.1 Vs^−1 with a potential range of +2 to −2 in a Tris-HCl (5 mM)/NaCl (50 mM) (pH = 7.2) solution. The M^1+/M^2+ redox couple is caused by complexes that reveal a single anodic and cathodic peak. […] (Figure S29 and Table 6).
ΔEP is peak-to-peak separation = (EPa − EPc); E°(or) E1/2 is denoted as formal electrode potential = 1/2 (EPa + EPc); Es°=(Eb° − Ef°)Eb° and Ef° are represented as the formal electrode potential of the M^1+/M^2+ couple in the bound and free forms, respectively. Es° = +19 mV (HL), +34 mV (1a), and +31 mV (2a). Ipa is anodic peak current, Ipc is cathodic peak current. K^1+ is binding constant of reduction process, K^2+ is binding constant of oxidation process, S is represented as binding site size of base pairs (bp) with a molecule of complex, Scan rate is 100 mV·s^−1, binding constant (Kb) values observed from the linear plots of log (1/[DNA]) vs. log (I/I0 − I) for oxidation and reduction, (I0 − IDNA)/IDNA = Cp/Cf versus [DNA] and Ip ^2 versus (Ipo ^2 −Ip ^2 )/[DNA] by methods I, II, and III, respectively.(24) DiffusioncoefficientD0=7.51×10^−5 SlopelogI0 −I/I=log DNA+logKb, where I0 and I are represented as the peak currents of the compound in the absence and presence of DNA.(25) log DNA=logI0 −I/I+log1/Kb log1/DNA=logI/I0−I+logKb, (26) I0 −I/I=KbDNA, (27) I0 −I/I=Cb/Cf, where Cf and Cb are denoted as the free substance concentration and DNA-interacted compound, respectively. (29) was obtained by comparing equations (27) and (28).(28) Cb/Cf=KbDNA, (29) Cb/Cf=Kbfreebasrpairs/S , (30) Cb/Cf=KbDNA/2 S +1.
S is denoted as binding site size (bp), and Kb are estimated from (31) with the help of S = (intercept/4)^1/2 and (Kb = 2S (slope/intercept), respectively. Nernst equations are as follows:(31) Es°=Eb°−Ef°=0.0591 /n logKred/Koxi, (32) Kred/Koxi=Ant. log nEb°−Ef°/0.0591.
E 1/2 or Eb° and Ef° are the formal electrode potentials of the M^1+/M^2+ couple in their bound and free forms, respectively.(33) Ip 2 =1/KbDNAIp0 2 −Ip 2 +Ip0 2 −DNA, where Ipo and Ip are denoted as the peak currents of the complexes (1–3) in the absence and presence of DNA.(34) Ipa=2.69×10^5 n^3/2 α^1/2 AC0 ∗D0 1/2 v^1/2 , (35) Ipa=13314.7D0 1/2 v^1/2 , where Ipa is denoted as the anodic peak current in amperes, n is represented as the number of electrons participating in the redox (M^1+/M^2+) process (n = 1), charge transfer coefficient (or) activation coefficient (α)≈0.5 for quasireversible systems, which also calculated from Bard–Faulkner relation(35a) α=47.7/EPa−EP/2.
C0^∗ ⟶ Bulk concentration of the compound, A is denoted as the cross-sectional area of the working electrode (glassy carbon) in cm^2 (A∼0.07 cm^2), D0 is denoted as diffusion coefficient (cm^2 s^−1) of the M^1+/M^2+ couple in the free and bound forms, respectively, and v is denoted as the potential scan rate at 0.1 Volt·s^−1. While the substances often bind to deoxyribonucleic acid through intercalation, the peak potential shifts in a positive direction. When the compounds bind to deoxyribonucleic acid via minor or major grooves or electrostatic attractions, the peak potential shifts occur in a negative direction. […]

BSA = BSA (Bos taurus, UniProt P02769); test: FRET computation, donor (BSA) - acceptor (compound); format: binding, bovine; design: kET (rate of energy transfer): unit not given here; conditions: for J, spectral overlap integral: BSA donor, compound acceptor; for B (brightness of complex-BSA system): free BSA = 6,573.60

Row | SMILES | % Inhibition hydroxyl radical ([1]; 40 µM) [%] | % Inhibition hydroxyl radical ([1]; 80 µM) [%] | % Inhibition hydroxyl radical ([1]; 120 µM) [%] | % Inhibition hydroxyl radical ([1]; 160 µM) [%] | % Inhibition hydroxyl radical ([1]; 200 µM) [%] | % Inhibition hydroxyl radical ([1]; 240 µM) [%] | Kb method II (CT-DNA) [M⁻¹] | Kb method III (CT-DNA) [M⁻¹] | K[red]/K[oxi], (calcd) (CT-DNA) | K[red]/K[oxi], found (I) (CT-DNA) | S (bp), binding site size (CT-DNA) [bp] | Kb method I, (oxi) (CT-DNA) [M⁻¹] | Kb method I, red (CT-DNA) [M⁻¹] | Es° = (Eb° − Ef°) (CT-DNA) | E (efficiency of energy transfer) (BSA) | R0 (Förster radius) (BSA) [nm] | kET (rate of energy transfer) (BSA) | r (donor-acceptor separation) (BSA) [nm] | J, spectral overlap integral (BSA) | B (brightness of complex-BSA system) (BSA) [M⁻¹ cm⁻¹] | further results
1 | [Cu+2].[O-]c1ccccc1N=Cc1ccc(N2CCOCC2)cc1.[O-]c1ccccc1N=Cc1ccc(N2CCOCC2)cc1.c1ccc(-c2ccccn2)nc1 [(1a), [Cu(L)2(bpy)]] | 09.16 | 18.23 | 32.22 | 40.12 | 51.14 | 61.10 | 70773 | 21567 | 3.76 | 0.8628 | 0.123 | 25330 | 21854 | +34 mV | 0.5769 | 2.4090 | 13.6340 | 2.2877 | 0.7607 × 10^−14 (LM^−1·cm^3) | 5187.78 | pIC50 [1]: 3.70
2 | [O-]c1ccccc1N=Cc1ccc(N2CCOCC2)cc1.[O-]c1ccccc1N=Cc1ccc(N2CCOCC2)cc1.[Zn+2].c1ccc(-c2ccccn2)nc1 [(2a), [Zn(L)2(bpy)]] | 08.25 | 16.86 | 25.78 | 34.66 | 45.78 | 56.14 | 27693 | 18486 | 3.34 | 0.8268 | 0.270 | 24610 | 20348 | +31 mV | 0.5615 | 2.2770 | 10.4206 | 2.1851 | 0.5425 × 10^−14 (LM^−1·cm^3) | 4642.53 | 
3 | Oc1ccccc1N=Cc1ccc(N2CCOCC2)cc1 [(HL), 2-(4-morpholinobenzylideneamino)phenol] | 07.26 | 14.43 | 25.52 | 33.86 | 40.73 | 50.68 | 2443 | 4837 | 2.0964 | 0.7214 | 0.452 | 5280 | 3809 | +19 mV | 0.3462 | 2.4400 | 5.2957 | 2.7127 | 0.8215 × 10^−14 (LM^−1·cm^3) | 5339.79 | 
